Laboratory results published in patent publication US9273040B2 (Merck Sharp & Dohme Corp., priority 2011, dated 2016).
Like-named read-outs stand apart in the source and are kept apart here.

How the values were obtained:
[1] = molecular target: T1, human Nav1.5 channels stably expressed in HEK 293 cells (Homo sapiens, UniProt Q14524); assay: PatchXpress 7000 automated patch-clamp, sodium current; assay type: cell-based; conditions: selectivity over Nav1.5
T1 construct: expressed in transfected cells
T1 sequence (Q14524 whole entry): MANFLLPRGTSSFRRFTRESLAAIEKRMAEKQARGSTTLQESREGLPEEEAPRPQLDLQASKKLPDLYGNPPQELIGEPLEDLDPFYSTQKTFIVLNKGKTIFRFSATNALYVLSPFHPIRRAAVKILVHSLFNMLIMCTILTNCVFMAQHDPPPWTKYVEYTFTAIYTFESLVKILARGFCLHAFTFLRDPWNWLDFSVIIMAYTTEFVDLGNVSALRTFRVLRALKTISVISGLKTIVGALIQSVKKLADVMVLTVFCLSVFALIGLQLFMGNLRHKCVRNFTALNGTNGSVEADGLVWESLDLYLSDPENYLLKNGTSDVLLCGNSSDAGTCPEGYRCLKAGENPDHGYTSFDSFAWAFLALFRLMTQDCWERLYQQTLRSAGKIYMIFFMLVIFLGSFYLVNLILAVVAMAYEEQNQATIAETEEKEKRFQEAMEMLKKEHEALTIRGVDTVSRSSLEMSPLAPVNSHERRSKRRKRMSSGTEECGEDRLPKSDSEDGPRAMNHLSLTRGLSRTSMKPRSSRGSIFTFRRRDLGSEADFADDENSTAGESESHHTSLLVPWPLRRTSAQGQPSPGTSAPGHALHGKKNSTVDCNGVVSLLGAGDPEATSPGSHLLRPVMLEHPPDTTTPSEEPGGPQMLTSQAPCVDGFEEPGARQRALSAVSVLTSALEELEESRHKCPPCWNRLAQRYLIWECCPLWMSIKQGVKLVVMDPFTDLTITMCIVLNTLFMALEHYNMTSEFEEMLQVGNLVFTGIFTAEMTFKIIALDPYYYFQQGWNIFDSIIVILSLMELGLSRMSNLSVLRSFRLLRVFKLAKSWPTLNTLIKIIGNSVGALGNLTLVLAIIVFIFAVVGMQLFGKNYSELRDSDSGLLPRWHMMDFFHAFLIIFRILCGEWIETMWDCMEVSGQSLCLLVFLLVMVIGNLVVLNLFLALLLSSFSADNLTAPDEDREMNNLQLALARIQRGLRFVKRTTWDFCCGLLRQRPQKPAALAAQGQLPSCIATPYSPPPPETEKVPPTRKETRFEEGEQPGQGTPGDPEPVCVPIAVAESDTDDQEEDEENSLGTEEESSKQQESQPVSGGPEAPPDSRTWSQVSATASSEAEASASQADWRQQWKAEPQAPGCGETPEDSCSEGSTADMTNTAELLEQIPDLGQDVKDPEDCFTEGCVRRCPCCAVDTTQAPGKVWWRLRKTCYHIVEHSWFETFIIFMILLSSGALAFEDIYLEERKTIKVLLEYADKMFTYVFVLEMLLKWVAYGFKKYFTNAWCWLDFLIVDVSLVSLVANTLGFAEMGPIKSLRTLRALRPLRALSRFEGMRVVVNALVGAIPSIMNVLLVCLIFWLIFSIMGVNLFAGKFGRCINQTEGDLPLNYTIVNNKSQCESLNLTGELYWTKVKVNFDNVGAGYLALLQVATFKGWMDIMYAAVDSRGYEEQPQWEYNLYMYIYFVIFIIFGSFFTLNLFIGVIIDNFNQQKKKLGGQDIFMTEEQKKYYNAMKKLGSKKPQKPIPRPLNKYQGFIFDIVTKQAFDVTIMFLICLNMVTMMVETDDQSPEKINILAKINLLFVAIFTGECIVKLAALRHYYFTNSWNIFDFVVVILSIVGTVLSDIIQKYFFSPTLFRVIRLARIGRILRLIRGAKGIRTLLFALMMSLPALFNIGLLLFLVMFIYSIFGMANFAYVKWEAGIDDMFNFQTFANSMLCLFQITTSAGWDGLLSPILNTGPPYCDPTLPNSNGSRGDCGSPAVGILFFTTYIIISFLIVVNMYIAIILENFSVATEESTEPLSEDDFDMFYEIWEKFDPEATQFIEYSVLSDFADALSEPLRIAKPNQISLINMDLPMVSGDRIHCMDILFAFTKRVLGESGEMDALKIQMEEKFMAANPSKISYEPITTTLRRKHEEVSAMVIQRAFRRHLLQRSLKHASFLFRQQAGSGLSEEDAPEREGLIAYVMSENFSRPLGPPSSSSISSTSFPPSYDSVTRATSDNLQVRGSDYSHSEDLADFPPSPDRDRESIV
From the text: (§1) To measure state and use-dependent sodium channel inhibition, test compounds were further characterized in an automated PatchXpress® assay (Molecular Devices). Two voltage-clamp protocols were used. 1) Use-dependent protocol: Cells were held at a membrane potential 20 mV negative to the potential at which ˜50% of the channels are inactivated (V0.5 inact). A train of 30 ms depolarizations to −20 mV was applied to the cells expressing Nav1.7 at a frequency of 10 Hz. […] Data was collected in the absence and presence of drug, and after drug washout. 2) A double-pulse protocol was used to measure inactivated state block. Cells were held at a potential 20 mV negative to V0.5 inact. A 8000 ms pre-pulse 7 mV positive to V0.5 inact was given followed by a hyperpolarizing 2 ms pulse to −120 mV and a 20 ms test pulse to −20 mV. Protocol was applied to cells in the absence, presence of compound and after washout. The temperature of PatchXpress instruments was maintained at 22° C. The following recording solutions were used. Internal solution (mM): 30 CsCl, 5 HEPES, 10 EGTA, 120 CsF, 5 NaF, 2MgCl2, pH=7.3 with CsOH, 324 mosmo. External solution (mM): 120 NMDG, 40 NaCl, 1 KCl, 0.5 MgCl2, 5 HEPES, 2.7 CaCl2, pH=7.5 with NMDG-OH.
(§2) For all electrophysiology experiments, offline analysis was used to correct for current rundown and to determine percent inhibition as a function of drug concentration. IC50 values were determined by fitting to the Hill equation.

[2] = molecular target: T2, human Nav1.7 channels stably expressed in HEK 293 cells (Homo sapiens, UniProt Q15858); assay: as above; assay type: cell-based; conditions: 22° C.
T2 construct: expressed in transfected cells
T2 sequence (Q15858 whole entry): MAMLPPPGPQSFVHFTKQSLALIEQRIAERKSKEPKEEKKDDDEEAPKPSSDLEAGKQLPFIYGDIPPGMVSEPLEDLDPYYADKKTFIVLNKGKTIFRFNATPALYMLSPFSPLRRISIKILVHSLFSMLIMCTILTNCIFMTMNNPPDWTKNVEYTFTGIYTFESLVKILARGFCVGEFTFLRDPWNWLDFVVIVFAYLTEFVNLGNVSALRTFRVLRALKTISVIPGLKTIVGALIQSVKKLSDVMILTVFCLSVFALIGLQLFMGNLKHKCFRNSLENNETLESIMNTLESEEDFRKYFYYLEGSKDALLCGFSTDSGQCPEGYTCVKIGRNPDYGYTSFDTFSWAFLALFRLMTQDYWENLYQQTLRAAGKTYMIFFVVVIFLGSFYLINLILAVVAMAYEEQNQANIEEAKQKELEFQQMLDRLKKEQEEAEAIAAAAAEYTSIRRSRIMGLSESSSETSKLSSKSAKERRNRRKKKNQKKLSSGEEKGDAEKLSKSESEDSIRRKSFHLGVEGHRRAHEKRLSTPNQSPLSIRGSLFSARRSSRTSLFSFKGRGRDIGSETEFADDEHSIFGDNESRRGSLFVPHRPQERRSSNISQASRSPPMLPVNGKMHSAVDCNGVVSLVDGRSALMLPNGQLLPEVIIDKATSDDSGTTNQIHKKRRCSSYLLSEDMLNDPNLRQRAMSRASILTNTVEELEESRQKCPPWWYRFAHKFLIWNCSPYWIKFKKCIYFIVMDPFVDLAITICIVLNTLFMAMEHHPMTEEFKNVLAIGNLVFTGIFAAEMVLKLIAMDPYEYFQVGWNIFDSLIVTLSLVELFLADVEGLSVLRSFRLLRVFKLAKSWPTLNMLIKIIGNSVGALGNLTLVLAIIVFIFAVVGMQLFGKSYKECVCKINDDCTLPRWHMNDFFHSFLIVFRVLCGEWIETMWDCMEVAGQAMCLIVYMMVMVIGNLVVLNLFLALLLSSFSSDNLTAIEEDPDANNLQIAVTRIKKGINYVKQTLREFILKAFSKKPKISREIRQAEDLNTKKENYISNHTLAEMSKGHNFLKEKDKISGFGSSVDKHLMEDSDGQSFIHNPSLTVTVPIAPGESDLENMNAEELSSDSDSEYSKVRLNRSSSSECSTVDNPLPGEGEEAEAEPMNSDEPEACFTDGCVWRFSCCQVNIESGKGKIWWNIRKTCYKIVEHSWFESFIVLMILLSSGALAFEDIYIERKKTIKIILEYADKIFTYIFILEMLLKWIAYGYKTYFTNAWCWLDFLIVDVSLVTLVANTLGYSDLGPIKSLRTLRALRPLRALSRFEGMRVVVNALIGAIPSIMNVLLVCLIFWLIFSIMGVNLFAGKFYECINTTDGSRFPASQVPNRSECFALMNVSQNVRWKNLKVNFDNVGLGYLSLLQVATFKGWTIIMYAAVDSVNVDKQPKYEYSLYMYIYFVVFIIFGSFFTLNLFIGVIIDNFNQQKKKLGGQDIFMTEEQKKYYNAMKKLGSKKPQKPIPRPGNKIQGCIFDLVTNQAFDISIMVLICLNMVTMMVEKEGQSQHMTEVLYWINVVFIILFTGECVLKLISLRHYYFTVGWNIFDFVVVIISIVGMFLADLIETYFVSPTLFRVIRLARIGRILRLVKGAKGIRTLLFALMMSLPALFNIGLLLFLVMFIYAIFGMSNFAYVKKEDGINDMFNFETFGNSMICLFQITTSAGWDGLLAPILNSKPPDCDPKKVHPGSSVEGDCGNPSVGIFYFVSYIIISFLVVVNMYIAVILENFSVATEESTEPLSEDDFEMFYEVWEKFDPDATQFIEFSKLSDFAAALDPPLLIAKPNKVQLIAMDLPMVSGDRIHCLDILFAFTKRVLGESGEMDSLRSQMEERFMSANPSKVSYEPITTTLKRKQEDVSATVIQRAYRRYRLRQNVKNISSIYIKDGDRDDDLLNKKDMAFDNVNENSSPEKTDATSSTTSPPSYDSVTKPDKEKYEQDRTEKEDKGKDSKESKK
From the text: as §1, §2

[3] = read-out: potency for the Nav 1.7 sodium ion channel (as measured by PatchXpress)

Structure (SMILES) | ratio of Nav 1.5:Nav 1.7 potency, determined by PatchXpress measurement [1] | IC50 [2, 3] | IC50 ([2]; potency for the Nav 1.7 sodium ion channel (as measured by PatchXpress))
C[C@@H](c1cccc2ccncc12)n1c(=O)oc2cc(S(=O)(=O)Nc3ncns3)ccc21 [Compound 14-9, 3-[(1S)-1-isoquinolin-8-ylethyl]-2-oxo-N-1,2,4-thiadiazol-5-yl-2,3-dihydro-1,3-benzoxazole-6-sulfonamide] | 37 | 808 nM | 
C[C@@H](c1cccc2ccncc12)n1c(=O)oc2cc(S(=O)(=O)Nc3ncns3)c(F)cc21 [Compound 14-10, 5-fluoro-3-[(1S)-1-isoquinolin-8-ylethyl]-2-oxo-N-1,2,4-thiadiazol-5-yl-2,3-dihydro-1,3-benzoxazole-6-sulfonamide] | 27 | 779 nM | 
C[C@H](c1cccc2cncn12)n1c(=O)oc2cc(S(=O)(=O)Nc3ncns3)c(F)cc21 [Compound 15-3, (R)-5-Fluoro-3-(1-(imidazo[1,5-a]pyridin-5-yl)ethyl)-2-oxo-N-(1,2,4-thiadiazol-5-yl)-2,3-dihydrobenzo[d]oxazole-6-sulfonamide] | 122 | 134 nM | 
C[C@@H](c1cccc2cncn12)n1c(=O)oc2cc(S(=O)(=O)Nc3ncns3)c(F)cc21 [Compound 15-4, 5-fluoro-3-[(1S)-1-imidazo[1,5-a]pyridin-5-ylethyl]-2-oxo-N-1,2,4-thiadiazol-5-yl-2,3-dihydro-1,3-benzoxazole-6-sulfonamide] | 60 | 235 nM | 
C[C@H](c1ccccc1I)n1c(=O)oc2cc(S(=O)(=O)Nc3ncns3)c(F)cc21 [Compound 16-3, (R)-5-Fluoro-3-(1-(2-iodophenyl)ethyl)-2-oxo-N-(1,2,4-thiadiazol-5-yl)-2,3-dihydrobenzo[d]oxazole-6-sulfonamide] | 272 | 69 nM | 
C[C@H](c1ccccc1C1=CCNCC1)n1c(=O)oc2cc(S(=O)(=O)Nc3ncns3)c(F)cc21 [Compound 16-4, (R)-5-Fluoro-2-oxo-3-(1-(2-(1,2,3,6-tetrahydropyridin-4-yl)phenyl)ethyl)-N-(1,2,4-thiadiazol-5-yl)-2,3-dihydrobenzo[d]oxazole-6-sulfonamide] | 296 |  | 28 nM
C[C@H](c1ccccc1C1=CCCNC1)n1c(=O)oc2cc(S(=O)(=O)Nc3ncns3)c(F)cc21 [Compound 16-5, 5-fluoro-2-oxo-3-{(1R)-1-[2-(1,2,5,6-tetrahydropyridin-3-yl)phenyl]ethyl}-N-1,2,4-thiadiazol-5-yl-2,3-dihydro-1,3-benzoxazole-6-sulfonamide] | 646 | 46 nM | 
C[C@H](c1ccccc1C1=CCNCCC1)n1c(=O)oc2cc(S(=O)(=O)Nc3ncns3)c(F)cc21 [Compound 16-6, 5-fluoro-2-oxo-3-{(1R)-1-[2-(2,5,6,7-tetrahydro-1H-azepin-4-yl)phenyl]ethyl}-N-1,2,4-thiadiazol-5-yl-2,3-dihydro-1,3-benzoxazole-6-sulfonamide] | 1692 | 18 nM | 
C[C@H](c1ccccc1C#CC1(N)CC1)n1c(=O)oc2cc(S(=O)(=O)Nc3ncns3)c(F)cc21 [Compound 17-1, (R)-3-(1-(2-((1-aminocyclopropyl)ethynyl)phenyl)ethyl)-5-fluoro-2-oxo-N-(1,2,4-thiadiazol-5-yl)-2,3-dihydrobenzo[d]oxazole-6-sulfonamide] | 313 | 96 nM | 
C[C@H](c1ccccc1C#CCN1CCOCC1)n1c(=O)oc2cc(S(=O)(=O)Nc3ncns3)c(F)cc21 [Compound 17-2, 5-fluoro-3-{(1R)-1-[2-(3-morpholin-4-ylprop-1-yn-1-yl)phenyl]ethyl}-2-oxo-N-1,2,4-thiadiazol-5-yl-2,3-dihydro-1,3-benzoxazole-6-sulfonamide] | 90 | 332 nM | 
C[C@H](c1ccccc1C#CC1(O)CCCC1)n1c(=O)oc2cc(S(=O)(=O)Nc3ncns3)c(F)cc21 [Compound 17-3, 5-fluoro-3-[(1R)-1-{2-[(1-hydroxycyclopentyl)ethynyl]phenyl}ethyl]-2-oxo-N-1,2,4-thiadiazol-5-yl-2,3-dihydro-1,3-benzoxazole-6-sulfonamide] | 97 | 172 nM | 
C[C@H](c1ccccc1C#CCCO)n1c(=O)oc2cc(S(=O)(=O)Nc3ncns3)c(F)cc21 [Compound 17-4, 5-fluoro-3-{(1R)-1-[2-(4-hydroxybut-1-yn-1-yl)phenyl]ethyl}-2-oxo-N-1,2,4-thiadiazol-5-yl-2,3-dihydro-1,3-benzoxazole-6-sulfonamide] | 360 | 147 nM | 
C[C@H](c1ccccc1C#CCN1CCS(=O)(=O)CC1)n1c(=O)oc2cc(S(=O)(=O)Nc3ncns3)c(F)cc21 [Compound 17-5, 3-[(1R)-1-{2-[3-(1,1-dioxidothiomorpholin-4-yl)prop-1-yn-1-yl]phenyl}ethyl)-5-fluoro-2-oxo-N-1,2,4-thiadiazol-5-yl-2,3-dihydro-1,3-benzoxazole-6-sulfonamide] | 246 | 122 nM | 
CCC(O)(C#Cc1ccccc1[C@@H](C)n1c(=O)oc2cc(S(=O)(=O)Nc3ncns3)c(F)cc21)CC [Compound 17-6, 3-{(1R)-1-[2-(3-ethyl-3-hydroxypent-1-yn-1-yl)phenyl]ethyl}-5-fluoro-2-oxo-N-1,2,4-thiadiazol-5-yl-2,3-dihydro-1,3-benzoxazole-6-sulfonamide] | 91 | 104 nM | 
C[C@H](c1ccccc1C#C[C@@H](C)O)n1c(=O)oc2cc(S(=O)(=O)Nc3ncns3)c(F)cc21 [Compound 17-7, 5-fluoro-3-[(1R)-1-{2-[(3R)-3-hydroxybut-1-yn-1-yl]phenyl}ethyl]-2-oxo-N-1,2,4-thiadiazol-5-yl-2,3-dihydro-1,3-benzoxazole-6-sulfonamide] | 1257 | 78 nM | 
C[C@H](c1ccccc1C#Cc1cncn1C)n1c(=O)oc2cc(S(=O)(=O)Nc3ncns3)c(F)cc21 [Compound 17-8, 5-fluoro-3-[(1R)-1-{2-[(1-methyl-1H-imidazol-5-yl)ethynyl]phenyl}ethyl]-2-oxo-N-1,2,4-thiadiazol-5-yl-2,3-dihydro-1,3-benzoxazole-6-sulfonamide] | 27 | 64 nM | 
C[C@H](c1ccccc1C#CCO)n1c(=O)oc2cc(S(=O)(=O)Nc3ncns3)c(F)cc21 [Compound 17-9, 5-fluoro-3-{(1R)-1-[2-(3-hydroxyprop-1-yn-1-yl)phenyl]ethyl}-2-oxo-N-1,2,4-thiadiazol-5-yl-2,3-dihydro-1,3-benzoxazole-6-sulfonamide] | 45 | 58 nM | 
C[C@H](c1ccccc1C#CC(C)(C)N)n1c(=O)oc2cc(S(=O)(=O)Nc3ncns3)c(F)cc21 [Compound 17-10, 3-{(1R)-1-[2-(3-amino-3-methylbut-1-yn-1-yl)phenyl]ethyl}-5-fluoro-2-oxo-N-1,2,4-thiadiazol-5-yl-2,3-dihydro-1,3-benzoxazole-6-sulfonamide] | 534 | 56 nM | 
